“Also recorded” adds a separate entry of the source.
What was measured:
IL-6 = IL-6 (Homo sapiens, UniProt P05231); assay: SPR binding to immobilized IL-6; conditions: CM5 chip, 1:1 binding model, 0.38-12.50 µM analyte
Experimental: (§1) SPR was used to evaluate the binding affinity between the PROTAC molecules and the target proteins. Target proteins CCL5 and IL-6 were immobilized on a CM5 sensor chip via amine coupling, with unreacted sites blocked using ethanolamine (pH 8.5). The PROTAC molecules were injected at concentrations ranging from 0.38 µM to 12.50 µM in PBS-P running buffer (0.02 M phosphate buffer, 137 mM NaCl, 2.7 mM KCl, 0.2% DMSO, 0.05% P20, pH 7.4). Each injection lasted 120 s (association phase) followed by a 300-s dissociation phase at a flow rate of 30 μL/min. Data were analyzed using Biacore Insight Evaluation Software with a 1:1 binding model to determine KD values. In addition to the 1:1 Langmuir model, we tested bivalent-analyte and heterogeneous-ligand models. Both alternatives yielded substantially larger residuals and poorer overall fits, confirming the 1:1 Langmuir model as the most suitable for our sensorgram data.
(§2) To comprehensively assess the biological functionality of the PROTAC molecules, binding kinetics with the target proteins CCL5 and IL-6 were investigated using the Biacore 8K^+ system. CCL5 and IL-6—key inflammatory mediators—were immobilized on a CM5 sensor chip (9000 RU) via amine coupling, and kinetic parameters were calculated using a 1:1 binding model.

[1] = test system: inflammatory cytokines (IL-1β and TNF-α), PBMCs; assay: LPS-induced cytokine secretion in PBMCs, cytokines overall; format: cell-based, Human; conditions: 100 nM-10 μM
Experimental: (§3) Human PBMCs were isolated from buffy coats (procured from Uppsala University Hospital, Sweden) using Ficoll density gradient centrifugation and stored at −150°C. Thawed PBMCs were cultured in Dulbecco’s Modified Eagle Medium (DMEM) supplemented with 10% fetal bovine serum (FBS) and 5% PeSt in a CO2 incubator. Cells were seeded in 24-well plates (0.5–1 × 10^6 cells/well in 1 mL medium). PROTAC analogs and FS were added at 10 μM, 1 μM, and 100 nM. Two setups were employed: one receiving only the compounds, and another in which LPS (20 ng/mL) was added 2 h after compound treatment. After 24 h, supernatants were collected for cytokine quantification by ELISA.
(§4) All quantitative data are presented as mean ± SD. Sample size for each assay was n = 3 biological replicates. For multi-group comparisons, one-way ANOVA followed by Tukey’s post hoc test was used; for two-group comparisons, two-tailed, unpaired Student’s t-test was applied. P < 0.05 was considered significant.

CCL5 = molecular target: T1, CCL5 (Homo sapiens, UniProt P13501); assay: SPR binding to immobilized CCL5; conditions: for Kd: CM5 chip, 1:1 binding model, 0.38-12.50 µM analyte
T1 sequence (P13501 24-91): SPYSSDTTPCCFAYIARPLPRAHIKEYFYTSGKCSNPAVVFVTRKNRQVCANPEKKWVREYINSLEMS
Experimental: as §1, §2

[2] = test system: IL-1β release, peripheral blood mononuclear cells (PBMCs); assay: LPS-induced IL-1β release in PBMCs (ELISA); format: cell-based, Human; conditions: 100 nM-10 μM
Experimental: as §3, §4

[3] = test system: TNF-α release, peripheral blood mononuclear cells (PBMCs); assay: LPS-induced TNF-α release in PBMCs (ELISA); format: cell-based, Human; conditions: 100 nM-10 μM
Experimental: as §3, §4

[4] = test system: colonic TNF-α and IL-1β levels; set-up: method as in Xu et al., 2024; conditions: murine colitis model; ref Xu et al., 2024; cited from earlier work

Chain of IL-6 (P05231 30-212, species assumed): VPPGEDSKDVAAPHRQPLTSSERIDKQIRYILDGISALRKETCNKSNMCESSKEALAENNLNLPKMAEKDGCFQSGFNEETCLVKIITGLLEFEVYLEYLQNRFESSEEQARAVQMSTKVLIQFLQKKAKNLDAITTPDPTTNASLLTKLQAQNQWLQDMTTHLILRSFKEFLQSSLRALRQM

SMILES	Kd (IL-6)	binding to CCL5 (in words) (CCL5; negative control)	Kd (CCL5)	effect on LPS-induced cytokine secretion (in words) [1]	effect on LPS-induced IL-1β release (in words) [2]	effect on LPS-induced TNF-α (in words) [3]	colonic TNF-α and IL-1β levels [4]
CO[C@H]1O[C@H](COS(=O)(=O)O)[C@@H](O[C@@H]2O[C@@H](C(=O)NCCCCCCCNc3cccc4c3C(=O)N(C3CCC(=O)NC3=O)C4=O)[C@@H](OC3O[C@H](COS(=O)(=O)O)[C@@H](O[C@@H]4O[C@H](C(=O)NCCCCCCCNc5cccc6c5C(=O)N(C5CCC(=O)NC5=O)C6=O)[C@@H](O[C@H]5O[C@H](COS(=O)(=O)O)[C@@H](O)[C@H](O)[C@H]5NS(=O)(=O)O)[C@H](O)[C@H]4O)[C@H](OS(=O)(=O)O)[C@H]3NS(=O)(=O)O)[C@H](O)[C@H]2OS(=O)(=O)O)[C@H](O)[C@H]1NS(=O)(=O)O (some centres unmarked) [Product 6]	8.27 µM	–	4.75 µM	significant inhibition; also recorded: concentration-dependent suppression	significantly inhibited	–	–
CO[C@H]1O[C@H](COS(=O)(=O)O)[C@@H](O[C@@H]2O[C@@H](C(=O)NCCCCCc3cccc4c3CN(C3CCC(=O)NC3=O)C4=O)[C@@H](OC3O[C@H](COS(=O)(=O)O)[C@@H](O[C@@H]4O[C@H](C(=O)NCCCCCc5cccc6c5CN(C5CCC(=O)NC5=O)C6=O)[C@@H](O[C@H]5O[C@H](COS(=O)(=O)O)[C@@H](O)[C@H](O)[C@H]5NS(=O)(=O)O)[C@H](O)[C@H]4O)[C@H](OS(=O)(=O)O)[C@H]3NS(=O)(=O)O)[C@H](O)[C@H]2OS(=O)(=O)O)[C@H](O)[C@H]1NS(=O)(=O)O (some centres unmarked) [Product 8]	–	–	9.48 µM	did not elicit significant changes; also recorded: limited anti-inflammatory activity	no significant effect; also recorded: not statistically significant	mild inhibition; also recorded: minimal	–
O=C(/C=C/C(=O)Nc1ccc(NC(=O)c2ccc([N+](=O)[O-])o2)cc1)NCCCCCCNc1cccc2c1C(=O)N(C1CCC(=O)NC1=O)C2=O (centres unmarked) [SP23]	–	–	–	–	–	–	reduced

Further lines, with some results ahead:

Kd (IL-6)	binding to CCL5 (in words) (CCL5; negative control)	Kd (CCL5)	SMILES	effect on LPS-induced cytokine secretion (in words) [1]	effect on LPS-induced IL-1β release (in words) [2]	effect on LPS-induced TNF-α (in words) [3]	colonic TNF-α and IL-1β levels [4]
13.5 µM	no binding	–	CO[C@H]1O[C@H](COS(=O)(=O)O)[C@@H](O[C@@H]2O[C@@H](C(=O)O)[C@@H](O[C@H]3O[C@H](COS(=O)(=O)O)[C@@H](O[C@@H]4O[C@H](C(=O)O)[C@@H](O[C@H]5O[C@H](COS(=O)(=O)O)[C@@H](O)[C@H](O)[C@H]5NS(=O)(=O)O)[C@H](O)[C@H]4O)[C@H](OS(=O)(=O)O)[C@H]3NS(=O)(=O)O)[C@H](O)[C@H]2OS(=O)(=O)O)[C@H](O)[C@H]1NS(=O)(=O)O [FS, Fondaparinux Sodium]	did not elicit significant changes	no effect	–	–
1.54 µM	–	11.3 µM	CO[C@H]1O[C@H](COS(=O)(=O)O)[C@@H](O[C@@H]2O[C@@H](C(=O)NCCCCCNc3cccc4c3C(=O)N(C3CCC(=O)NC3=O)C4=O)[C@@H](OC3O[C@H](COS(=O)(=O)O)[C@@H](O[C@@H]4O[C@H](C(=O)NCCCCCNc5cccc6c5C(=O)N(C5CCC(=O)NC5=O)C6=O)[C@@H](O[C@H]5O[C@H](COS(=O)(=O)O)[C@@H](O)[C@H](O)[C@H]5NS(=O)(=O)O)[C@H](O)[C@H]4O)[C@H](OS(=O)(=O)O)[C@H]3NS(=O)(=O)O)[C@H](O)[C@H]2OS(=O)(=O)O)[C@H](O)[C@H]1NS(=O)(=O)O (some centres unmarked) [Product 10]	significant inhibitory effect; also recorded: concentration-dependent suppression	significantly inhibited	–	–
